Data taken from patent US6762197B2 (priority 1999, dated 2004).

Experiments:
Sphaerotheca fuliginea = Sphaerotheca fuliginea control effect test (Test Example 6, large-volume foliar spray on cucumber); format: in vivo; details: 200 ppm, flowable (Formulation Example 6), sprayed on cucumber (SAGAMI HANJIRO) before inoculation, 12 days at 23° C.
Experimental: Test Examples 1 to 6 are tests using a large amount (about 2000 L/ha) of spray on plants, and the extent of spraying is so that the whole surface of a plant body is completely wet and the sprayed liquid drips.
(§1) In the following tests, compounds of the invention are represented by compound numbers described in Tables 1 to 8. The control effect of a compound of the invention was evaluated by visually observing the area of a lesion on a sample plant in investigation and comparing the area of a lesion in a non-treatment district and the area of a lesion in a districts treated with the compound of the invention.
Sand loam was compacted in a plastic pot, a cucumber (SAGAMI HANJIRO) was seeded and grown in a green house for 12 days. Then, the Compound 1 was formulated into flowable fomulation according the Formulation Example 6, then, diluted with water to provide given concentration (200 ppm), and this was sprayed onto stems and leaves so as to give sufficient adhesion on the surface of cucumber leaves. After spraying, the plant was air-dried, and Sphaerotheca fuliginea spores were inoculated. After inoculation, the plant was first left for 12 days at 23° C., then, the control effect was checked.

Erysiphe graminis = Erysiphe graminis control effect test (Test Example 7, small-volume spray 200 L/ha on wheat); format: in vivo; details: 1000 ppm, emulsifiable formulation (Formulation Example 7), spray amount corresponding to 200 L/ha, wheat (NORIN No. 73), inoculated one day after, 7 days at 23° C.
Text: (§2) Test Examples 7 and 8 are tests using a small amount (corresponding 200 L/ha) of spray on plants, in which fine small liquid drops of a spray are uniformly adhere to the surface of a plant body and the extent of spraying is insufficient to for complete wetting of the surface of a plant body.
(§3) Controlling on a wheat disease in a field is so conducted in some cases that the spray liquid amount is about 200 L/ha. In this case, the amount of the sprayed liquid is insufficient for wetting of the whole plant body, and the sprayed liquid is adheres on a plant as fine liquid drops. For exerting high control effect on the subject diseases even under such spray condition, suitable physicochemical properties such as permeation transfer property, volatility and the like are required in addition to a basic effect.
as §1
(§4) Sand loam was compacted in a plastic pot, a wheat (NORIN No. 73) was seeded and grown in a green house for 10 days. […]

Puccinia striiformis = Puccinia striiformis control test (Test Example 8, small-volume spray 200 L/ha on wheat); format: in vivo; details: 1000 ppm, emulsifiable formulation (Formulation Example 7), spray amount corresponding to 200 L/ha, wheat (NORIN No. 73), 1 day dark high humidity at 23° C. then 6 days under illumination
Text: as §2, §3, §1, §4

Structure (SMILES)	melting point [°C]	lesion area on plants relative to the lesion area of a non-treatment district (Sphaerotheca fuliginea)	lesion in the treatment district (control effect) (Erysiphe graminis)	lesion in the treatment district (control effect) (Puccinia striiformis)
Cc1ccc(Br)cc1Cn1c(C(F)F)nn(C)c1=O	107.6			
Cc1ccc(-c2ccccc2)cc1Cn1c(C(F)F)nn(C)c1=O [Compound 1, 5-difluoromethyl-2-methyl-4-(2-methyl-5-phenylbenzyl)-2,4-dihydro-3H-1,2,4-triazol-3-one]	72.7	not more than 10%	no lesion was recognized at all	no lesion was recognized at all
